Article PMC10144058, “New Hybrid Scaffolds Based on 5-FU/Curcumin: Synthesis, Cytotoxic, Antiproliferative and Pro-Apoptotic Effect” (Pharmaceutics, 2023)
Read-outs that look alike come from different tables or passages of the source.

Columns and labels:
Bel7402 = tested on: Bel7402; parameters: method as in PMID 31080076; conditions: cited from earlier work
Bel-7402/5-FU = tested on: Bel-7402/5-FU; parameters: method as in PMID 31080076; conditions: cited from earlier work
K562 cell line = tested on: K562 cell line; parameters: method as in PMID 33213229; conditions: cited from earlier work
U937 cell line = tested on: U937 cell line; parameters: method as in PMID 33213229; conditions: cited from earlier work
HL-60 cell line = tested on: HL-60 cell line; parameters: method as in PMID 33213229; conditions: cited from earlier work
HCT116 cells = tested on: HCT116 cells; parameters: method as in PMID 31097715; conditions: cited from earlier work
[1] = tested on: HCEC non-malignant epithelial cells; parameters: method as in PMID 31097715; conditions: HCEC non-malignant corneal epithelial cells; cited from earlier work
[2] = tested on: caspase 3, caspase 7, caspase 8 and p53 in SW480 cells; experiment: Apoptotic biomarkers (ELISA); format: cell-based, human; conditions: SW480, treated with IC50, 48 h, vs control
Experimental: To provide an approach to the possible molecular mechanisms through which the hybrid compounds induce an effect on the cell lines, different proteins related to the process of death by apoptosis were determined. For this method, 1,000,000 cells were initially seeded per Petri dish, with an adherence period of 24 h at 37 °C in a 5% CO2 atmosphere. […] Later, the consumed medium was discarded, and after the addition of the versene buffer, the cells were obtained by mechanical disaggregation. The cells were then lysed with a cell lysis buffer and centrifuged to obtain the supernatant, which was used to determine the biomarkers of interest by enzyme-linked immunosorbent assays. These ELISA kits were provided by Elabscience Biotechnology Co., Houston, TX, USA [26].

SW480 cells [3] = experiment: Cell cycle analysis (PI, flow cytometry); format: cell-based, human; conditions: SW480, treated with IC50 value, 48 h
Experimental: The method used for the recognition of cell cycle phases (G0/G1, S, G2/M) was based on staining with a fluorescent dye (propidium iodide—PI), as a direct relationship between fluorescence intensity and DNA content can be established. For this method, 250,000 cells/well were initially seeded in 6-well culture plates with an adherence period of 24 h at 37 °C in a 5% CO2 atmosphere. […] After treatment, cells were obtained by mechanical disaggregation, and the cell pellet was centrifuged and washed with a versene buffer. The cell pellet was fixed with 1.8 mL of cold 70% ethanol and kept at 4 °C overnight. Subsequently, two washes with a versene buffer were performed, and the pellet was resuspended in 300 µL of PBS containing 0.25 mg/mL of RNAsa and 0.1 mg/mL of PI. After a 30 min period of dark incubation, the fluorescence of 10,000 cells was analyzed using a FACS Canto II flow cytometer. The PI signal was analyzed with excitation at 488 nm using a sapphire laser, and fluorescence was detected at 610 nm. The data analysis was performed with FlowJo 10.8.1 software.

SW480 cells [4] = experiment: Cell viability, sulforhodamine B (SRB) assay; format: cell-based; conditions: Homo sapiens
Experimental: (§1) SW480 (colon adenocarcinoma) and SW620 (derived metastatic) malignant cell lines, and the non-malignant lines HaCaT (human keratinocytes) and CHO-K1 (Chinese Hamster Ovary), were obtained from the European Collection of Authenticated Cell Cultures (ECACC, Porton Down, Salisbury, UK). The cells were maintained in Dulbecco’s Modified Eagle’s Medium (DMEM), supplemented with 10% equine serum previously inactivated at 56 °C, 1% penicillin/streptomycin, and 1% non-essential amino acids, and incubated at 37 °C in an atmosphere with 5% CO2. To carry out the experiments, the serum was diluted to 3% and additionally supplemented with […] insulin, […] transferrin, and 5 ng/mL selenium. Cells were used for experimentation when they reached 80–90% confluence, using a 1X trypsin enzymatic disintegration method. To avoid contamination by Mycoplasma spp., cell cultures were periodically analyzed by polymerase chain reaction (PCR).
(§2) Cell viability was evaluated with a sulforhodamine B (SRB) assay. This technique provides an index of protein contents in living and adherent cells, whose optical density can be related to cell concentration. Initially, 20,000 cells were seeded per well in 96-well culture plates. An initial adherence period of 24 h was performed at 37 °C, 5% CO2, and after this, the medium was replaced by another that contained the hybrid compounds in different concentrations. Then, the cells were left incubating for 24 and 48 h under the same conditions previously described. After the respective incubation times, the cells were fixed with trichloroacetic acid (50% v/v) for 1 h at 4 °C and stained with 0.4% (p/v) of SRB. Subsequently, washings with 1% acetic acid were carried out to eliminate possible nonspecific bindings, and after solubilization with 10 mM Tris-base, the absorbance was read at 492 nm in a microplate reader (Mindray MR-96A). All the experiments were carried out in triplicate.

SW620 cells [5] = experiment: Cell viability, sulforhodamine B (SRB) assay; format: cell-based, human; conditions: Homo sapiens
Experimental: as §1, §2

HaCaT cells = experiment: Cell viability, sulforhodamine B (SRB) assay, non-malignant cells; format: cell-based; conditions: Homo sapiens
Experimental: as §1, §2

CHO-K1 cells = experiment: as above; format: cell-based, Chinese Hamster; conditions: Cricetulus griseus
Experimental: as §1, §2

SW480 cells [6] = experiment: Mitochondrial membrane potential (DiOC6/PI, flow cytometry); format: cell-based, human; conditions: SW480, treated with IC50, 48 h
Experimental: The fluorescent dyes PI and DIOC6 (3,3’-dihexyloxacarbocyanine iodide) were used to observe the depolarization of the mitochondrial membrane as well as possible cell membrane damage. For this method, 250,000 cells/well were initially seeded in 6-well culture plates during a 24 h adherence period at 37 °C in a 5% CO2 atmosphere. […] After treatment, cells were obtained by mechanical disaggregation, stained with DiOC6 and PI, and incubated at room temperature for 30 min in the dark. Ten thousand events were analyzed by flow cytometry with excitation at 488 nm and emission detection with green (530/15 nm) and red (610/20 nm) filters.

SW480 cells [7] = experiment: Antiproliferative activity (SRB, 0-8 days); format: cell-based; conditions: Homo sapiens, read-out: Cell Viability (%) ± SE; for viability at 2.5 µM: SW480, 2.5 µM; for viability at 40 µM: SW480, 40 µM
Experimental: For this experiment, the same colorimetric method (SRB) from the evaluation of cell viability was used, although with some modifications. Initially, 2500 cells per well were seeded in 96-well culture plates, and a 24 h adherence period was performed at 37 °C in a 5% CO2 atmosphere. […] For this assay, incubation periods of 0, 2, 4, 6, and 8 days were used, and the fixation, staining, and reading conditions were the same as those previously described for the cytotoxicity assay.

normal 3T3 cells = tested on: normal 3T3 cells; parameters: method as in PMID 31080076; conditions: normal 3T3 cells (mouse embryonic fibroblast cell line); cited from earlier work
SW480 cells [8] = tested on: SW480 cells; parameters: method as in PMID 36297411; conditions: cited from earlier work
SW620 cells [9] = tested on: SW620 cells; parameters: method as in PMID 36297411; conditions: cited from earlier work
SW620 cell line = tested on: SW620 cell line; parameters: method as in PMID 34062841; conditions: cited from earlier work
[10] = tested on: SW480 human colon adenocarcinoma cells; parameters: method as in PMID 34062841; conditions: cited from earlier work
MGC-803 = tested on: MGC-803; parameters: method as in PMID 30025345; conditions: cited from earlier work
U87 = tested on: U87; parameters: method as in PMID 30025345; conditions: cited from earlier work
SGC-7901 = tested on: SGC-7901; parameters: method as in PMID 30025345; conditions: cited from earlier work
SMMC-7721 = tested on: SMMC-7721; parameters: method as in PMID 30025345; conditions: cited from earlier work
U266 cells = tested on: U266 cells; parameters: method as in PMID 23784627; conditions: cited from earlier work
RPMI8226 cells = tested on: RPMI8226 cells; parameters: method as in PMID 23784627; conditions: cited from earlier work
MM1S cells = tested on: MM1S cells; parameters: method as in PMID 23784627; conditions: cited from earlier work
COLO-205 cell line = tested on: COLO-205 cell line; parameters: method as in PMID 27060762; conditions: cited from earlier work
THP-1 cell line = tested on: THP-1 cell line; parameters: method as in PMID 27060762; conditions: cited from earlier work
HCT-116 cell line = tested on: HCT-116 cell line; parameters: method as in PMID 27060762; conditions: cited from earlier work
tubulin polymerization = tested on: tubulin polymerization; parameters: method as in PMID 27060762; conditions: in THP-1 tumor cells; read-out: IC50, inhibition of tubulin polymerization; cited from earlier work

COc1cccc2c1C(=O)c1c(O)c3c(c(O)c1C2=O)C[C@@](O)(C(=O)CO)C[C@@H]3O[C@H]1C[C@H](N)[C@H](O)[C@H](C)O1 [Adriamycin]
IC50 (Bel7402): 0.73 µM | IC50 (Bel-7402/5-FU): 1.14 µM

CC1(C)CCC(C)(C)c2cc(NC(=O)c3ccc(C(=O)OCn4cc(F)c(=O)[nH]c4=O)cc3)ccc21 [B]
IC50 (K562 cell line): 10.6 µM | IC50 (U937 cell line): 8.21 µM | IC50 (HL-60 cell line): 9.87 µM

CC1=C(CCC(=O)OCn2cc(F)c(=O)[nH]c2=O)C(=O)C(C(C)C)=CC1=O [C]
IC50 (HCT116 cells): 16 µM | IC50 [1]: 52 µM

COc1cc(/C=C/C(=O)c2ccc(OCCn3cc(Cn4cc(F)c(=O)[nH]c4=O)nn3)cc2)ccc1O [Compound 6a, (E)-5-fluoro-1-((1-(2-(4-(3-(4-hydroxy-3-methoxyphenyl)acryloyl)phenoxy)ethyl)-1H-1,2,3-triazol-4-yl)methyl)pyrimidine-2,4(1H,3H)-dione]
levels of biomarkers (caspase 3, caspase 7, caspase 8, p53) [2]: no significant differences | Cell cycle distribution, G0/G1 (SW480 cells [3]): 53.6% | Cell cycle distribution, G2/M (SW480 cells [3]): 22.2% | Cell cycle distribution, S Phase (SW480 cells [3]): 24.1% | Cell cycle distribution, Sub G0/G1 (SW480 cells [3]): 0% | IC50 (SW480 cells [4]; SW480, 24 h): 75.3 ± 4.65 µM | IC50 (SW480 cells [4]; SW480, 48 h): 17.4 ± 1.16 µM | IC50 (SW620 cells [5]; SW-620, 24 h, 24 h): > 100 µM | IC50 (SW620 cells [5]; SW-620, 48 h, 48 h): 45.1 ± 0.98 µM | IC50 (HaCaT cells; 24 h): 71.8 ± 4.22 µM | IC50 (HaCaT cells; 48 h): 27.9 ± 2.53 µM | IC50 (CHO-K1 cells; CHO-K1, 24 h): 82.8 ± 6.43 µM | IC50 (CHO-K1 cells; CHO-K1, 48 h): 73.7 ± 1.07 µM | Dioc6 High population (live cells with high membrane polarization) (SW480 cells [6]): 84.9% | Dioc6 Low population (cells that lose membrane polarization) (SW480 cells [6]): 0% | PI+ population (membrane damage or dead cells) (SW480 cells [6]): 15% | changes in the mitochondrial membrane potential (SW480 cells [6]): do not induce significant changes | viability at 2.5 µM (SW480 cells [7]; 48 h, 2 days after plating): 97.9 ± 1.55% | viability at 40 µM (SW480 cells [7]; 48 h, 2 days after plating): 16.2 ± 2.51% | viability at 2.5 µM (SW480 cells [7]; 96 h, 4 days after plating): 81.2 ± 2.8% | viability at 40 µM (SW480 cells [7]; 96 h, 4 days after plating): 8 ± 1.81% | viability at 2.5 µM (SW480 cells [7]; 144 h, 6 days after plating): 59.5 ± 3.45% | viability at 40 µM (SW480 cells [7]; 144 h, 6 days after plating): 2.04 ± 0.35% | viability at 2.5 µM (SW480 cells [7]; 192 h, 8 days after plating): 42.8 ± 1.3% | viability at 40 µM (SW480 cells [7]; 192 h, 8 days after plating): 0%

C=C1C(=O)OC2C1CCC(COC(=O)Cn1cc(F)c(=O)n(Cc3ccc(C(F)(F)F)cc3)c1=O)=CCCC1(C)OC21 (stereo not drawn) [D]
IC50 (normal 3T3 cells): 5.2 µM

O=c1[nH]c(=O)n(Cc2cn(CCOc3cc(O)c4c(=O)c(-c5ccc(O)cc5)coc4c3)nn2)cc1F [E]
IC50 (SW480 cells [8]): 62.7 ± 7.26 µM | IC50 (SW620 cells [9]): 50.6 ± 1.33 µM

COc1ccc(/C=C/c2ccc(C(=O)/C=C/c3ccc(O)c(OC)c3)cc2)c(OC)c1 [G]
IC50 (SW620 cell line): 20.4 µM | IC50 [10]: 29.2 µM

COc1cc(OC)c2c(=O)c(OCCCOc3ccccc3/C=C/C(=O)/C=C/c3ccccn3)c(-c3cc(OC)c(OC)c(OC)c3)oc2c1 [H]
IC50 (MGC-803): 0.56 µM | IC50 (U87): 3.93 µM | IC50 (SGC-7901): 1.08 µM | IC50 (SMMC-7721): 3.18 µM

COc1cc(/C=C/C(=O)C(=Cc2cccc3c2C(=O)N(C2CCC(=O)NC2=O)C3=O)C(=O)/C=C/c2ccc(O)c(OC)c2)ccc1O (stereo not drawn) [I]
IC50 (U266 cells): 3.96 µM | IC50 (RPMI8226 cells): 4.55 µM | IC50 (MM1S cells): 6.44 µM

COc1cc(/C=C/C(=O)/C=C/c2cc(OC)c(OC)c(OC)c2)ccc1OCc1cn(CCOc2cc(=O)oc3ccccc23)nn1 [J]
IC50 (COLO-205 cell line): 4.68 µM | IC50 (THP-1 cell line): 0.82 µM | IC50 (HCT-116 cell line): 2.21 µM | IC50 (tubulin polymerization): 0.82 µM
